Data set [1] deals with 6-OHDA-induced Parkinson's disease rats. As to the kind of experiment: Rotarod assay in 6-hydroxydopamine-induced Parkinson's disease rats. It is filed as in vivo, Sprague Dawley (SD) rats. The procedure:
Experimental Sprague Dawley (SD) rats were randomly divided into an experimental group and a control group. After repeated behavior detection confirmed that there was no rotational behavior, the experiment was performed. Experimental group: rats were anesthetized with a mixture of xylazine (15 mg/kg, i.p.) and ketamine (100 mg/kg, i.p.), and then desipramine hydrochloride (25 mg/kg, s.c.) were used to protect noradrenergic neurons. 6 μg of 6-hydroxydopamine was dissolved in 2.3 μL of 0.9% sterile saline, and injected into the cerebral substantia nigra (antero-posterior −5.4 mm, […] from the bregma which was used as a zero coordinate) at a rate of 0.5 μL/min by using cerebral stereotaxic surgery. Rats in the control group were injected with the same dose of 0.9% sterile saline. After injection, the syringe needle was left in rats for 5 minutes before the needle was slowly withdrawn. After the rats awakened, they were placed in animal facilities for behavioral model evaluation to ensure that 6-hydroxydopamine induced the formation of a model with movement disorders and emotional/motivational disorders. Because hunger is prone to occur as a result of dopamine damage of the midbrain substantia nigra, 20% of rats were given high-calorie food for 1-2 weeks. After 19 days, the D3 receptor-selective ligand was continuously injected intraperitoneally for 3 days. Rats were allowed to accommodate the rotarod on days 19-20, and a rotarod assay was performed on days 21-22.
On the technique in general: In the rotarod test animals must keep their balance on a rotating rod.

In data set [2] the target is T1, dopamine D2 receptor (Homo sapiens, UniProt P14416).
T1 construct: expressed in transfected cells; host or cells: Human embryonic kidney-293 cells
T1 sequence (P14416 whole entry): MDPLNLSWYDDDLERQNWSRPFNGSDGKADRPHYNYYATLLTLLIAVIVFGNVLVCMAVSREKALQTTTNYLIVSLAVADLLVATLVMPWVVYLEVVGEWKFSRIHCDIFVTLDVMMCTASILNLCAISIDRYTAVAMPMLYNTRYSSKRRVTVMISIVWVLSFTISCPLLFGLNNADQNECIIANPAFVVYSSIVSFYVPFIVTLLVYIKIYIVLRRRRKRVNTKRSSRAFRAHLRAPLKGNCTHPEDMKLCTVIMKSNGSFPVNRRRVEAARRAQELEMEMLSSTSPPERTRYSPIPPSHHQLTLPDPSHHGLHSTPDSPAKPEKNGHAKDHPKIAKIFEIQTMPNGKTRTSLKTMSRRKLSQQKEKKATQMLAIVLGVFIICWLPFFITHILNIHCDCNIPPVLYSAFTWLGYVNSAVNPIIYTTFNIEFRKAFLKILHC
As to the kind of experiment: Intrinsic functional experiment, CRE luciferase reporter gene assay, D2 receptor. The format is cell-based. As to conditions: 2 μM forskolin, HEK-293 cells, quinpirole positive control. The procedure: (§1) Human embryonic kidney-293 cells were transfected with complementary DNA of human dopamine D2, D3 and D4 receptors and a luciferase reporter gene transcriptionally controlled by CRE. The cells transfected with an empty vector were used as a negative control. The cells were seeded into 24-well plates, and 2 μM of forskolin and various concentrations of compounds were added. Cells added with quinpirole were used as a positive control group. After four hours' incubation, cells were lysed with cell lysis buffer for 20 minutes and then centrifuged. The supernatant was reacted with 25 μL of luciferase substrate and the expression level of luciferase was detected by using a dual luciferase reporter vector kit.
Background: In a reporter assay the amount or activity of a reporter protein is the signal.

For data set [3], the target named is T2, dopamine D3 receptor (Homo sapiens, UniProt P35462).
T2 sequence (P35462 whole entry): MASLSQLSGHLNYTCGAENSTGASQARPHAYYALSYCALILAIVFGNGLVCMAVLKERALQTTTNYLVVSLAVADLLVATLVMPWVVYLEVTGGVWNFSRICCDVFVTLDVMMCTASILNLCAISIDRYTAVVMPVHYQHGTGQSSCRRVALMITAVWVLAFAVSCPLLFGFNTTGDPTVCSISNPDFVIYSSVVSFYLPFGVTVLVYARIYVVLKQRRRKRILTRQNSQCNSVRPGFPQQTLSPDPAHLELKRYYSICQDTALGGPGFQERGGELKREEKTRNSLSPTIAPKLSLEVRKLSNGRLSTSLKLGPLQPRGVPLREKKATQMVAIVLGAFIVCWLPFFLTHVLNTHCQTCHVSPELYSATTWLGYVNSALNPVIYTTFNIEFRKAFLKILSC
Experimental: (§3) Human embryonic kidney-293 cells were cultured in fresh MEM medium containing 10% fetal bovine serum, 100 units of penicillin, and 100 μg/mL streptomycin at 37° C. under 5% CO2. Cells were transfected with DNA plasmids of dopamine D2 and D3 receptors respectively by using polyethylenimine. After transfection for 4 hours, medium was replaced with fresh MEM medium containing fetal bovine serum and the cells were further cultured for 24 hours. The cells were seeded into 24-well plates and cultured for 14-16 hours or overnight. After the medium was discarded, the cells were rinsed with pre-cooled serum-free MEM. Radioligand ([^3H]-sulpiride) and various concentrations of compounds were added into the adherent cells, and incubated in a bath at 4° C. for 150 minutes. The cells were rinsed three times with pre-cooled MEM containing 10 mM HEPES to remove unbound ligands. After the medium was completely removed, the cells were lysed with 1% sodium lauryl sulfate. The remaining radioligands were detected with a liquid scintillation counter to calculate the relative amount of bound compounds.
Data set [4] is described as follows: Solubility assay in water. It is filed as physicochemical. From the text: (§2) Solubility Assay of the D3 Receptor-Selective Ligand
Data set [5] addresses T3, human dopamine D4 receptor (Homo sapiens, UniProt P21917).
T3 construct: expressed in transfected cells; host or cells: Human embryonic kidney-293 cells
T3 sequence (P21917 1-419): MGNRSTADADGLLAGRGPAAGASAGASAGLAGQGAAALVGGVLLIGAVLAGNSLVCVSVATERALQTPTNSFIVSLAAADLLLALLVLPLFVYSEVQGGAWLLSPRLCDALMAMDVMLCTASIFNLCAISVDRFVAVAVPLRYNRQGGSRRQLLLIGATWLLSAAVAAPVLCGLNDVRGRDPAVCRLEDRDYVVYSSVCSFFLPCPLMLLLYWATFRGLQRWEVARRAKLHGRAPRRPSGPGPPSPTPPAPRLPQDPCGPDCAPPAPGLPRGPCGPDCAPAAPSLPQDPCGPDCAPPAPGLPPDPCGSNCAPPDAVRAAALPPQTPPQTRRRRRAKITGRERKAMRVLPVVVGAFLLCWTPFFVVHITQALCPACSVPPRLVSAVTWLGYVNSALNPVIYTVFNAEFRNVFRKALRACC
As to the kind of experiment: Intrinsic functional experiment, CRE luciferase reporter gene assay, D4 receptor. The format is cell-based. To be noted: 2 μM forskolin, HEK-293 cells, quinpirole positive control. The procedure:
as §1

For data set [6], the target named is T2, dopamine D3 receptor. Nature of the data set: Intrinsic functional experiment, CRE luciferase reporter gene assay, D3 receptor. The format is cell-based. On the set-up: expressed in transfected cells; host or cells: Human embryonic kidney-293 cells. To be noted: 2 μM forskolin, HEK-293 cells, quinpirole positive control. The procedure: as §1
Data set [7] can be described thus: Solubility assay in anhydrous ethanol. As to conditions: organic solvent or mixture. It is filed as physicochemical.
Source text: as §2

Data set [8] addresses T2, dopamine D3 receptor. Nature of the data set: cell-based.
Experimental: as §3
Data set [9] has as its target T1, dopamine D2 receptor. Nature of the data set: Competitive inhibition test using radioligands ([3H]-sulpiride), D2 receptor. The format is binding. To be noted: for Ki: [3H]-sulpiride competition, HEK-293 cells, read-out: KiD2R.
Experimental: as §3
[10] abbreviates: intraperitoneal for 3 days, 6-hydroxydopamine rats.

Where a name gives a salt, the structure may show the parent alone.

The term solubility denotes how much of the substance goes into solution per volume. `O=C(NCCCCN1CCN(c2ccc(Cl)cc2)CC1)Nc1cnc2ccccc2c1` [Compound 8i, 1-(4-(4-(4-chlorophenyl)piperazin-1-yl)butyl)-3-(quinolin-3-yl)urea]: the frequency of falling entry in data set [1] (setting [10]) is on record as “reduced the frequency of falling”. In addition, in data set [1] (setting [10]), the latency to fall entry was “increased the latency to fall”. For the same compound, on dopamine D2 receptor [2], the “activation of signaling pathways downstream of D2 receptors” value is “didn't activate”. For the same compound, on dopamine D3 receptor [3], the selectivity ratio was greater than 10000. The Solubility in water result in [4] (1 mg/mL) was “+ (+ indicates that the compound was completely dissolved)”; in data set [4] (3 mg/mL), “− (− indicates that the compound was un-dissolved or not completely dissolved)”; in data set [4] (6 mg/mL), “− (− indicates that the compound was un-dissolved or not completely dissolved)”; in [4] (12 mg/mL), “− (− indicates that the compound was un-dissolved or not completely dissolved)”. Moreover, the “activation of signaling pathways downstream of D4 receptors (printed as D3 receptors)” value in [5] was “didn't activate”. On dopamine D3 receptor [6], the “activation of signaling pathways downstream of D3 receptors” value is “activated signaling pathways downstream of D3 receptors”. Moreover, the solubility is greater than 3300 µg/mL in data set [7] (3.3 mg/mL), less than 5000 µg/mL in data set [7] (5 mg/mL) and less than 5000 µg/mL in data set [7] (10 mg/mL). Besides, the Ki is 7.4 nM at dopamine D3 receptor [8] and greater than 79.6 µM at dopamine D2 receptor [9]. Moreover, on dopamine D2 receptor [9] ([…], arylpiperazine-arylurea compounds at 100 nM, [3H]-sulpiride, HEK-293 cells (Table 2), read-out: D2 Receptor Displacement (%)), the inhibition worked out at 10.2 ± 6.7%.

Regarding `O=C(NCCCCN1CCN(c2ccc(Cl)cc2)CC1)Nc1cnc2ccccc2c1` [8i•HCl, 1-(4-(4-(4-chlorophenyl)piperazin-1-yl)butyl)-3-(quinolin-3-yl)urea], the “effect compared with apomorphine (positive control drug)” value in [1] (6-hydroxydopamine rats) was “comparable to the effect of apomorphine”. Besides, the “motor dysfunction induced by 6-hydroxydopamine” value in [1] (intraperitoneal for 3 days) was “significantly improved”. The Solubility in water result in data set [4] (1 mg/mL), in data set [4] (3 mg/mL), in data set [4] (6 mg/mL) and in data set [4] (12 mg/mL) was “+ (+ indicates that the compound was completely dissolved)” throughout. In addition, the solubility in data set [7] (8.53 mg/mL) and in data set [7] (25.6 mg/mL) was less than 8530 µg/mL each time. Besides, the Ki on dopamine D3 receptor [8] was 14.3 nM; on dopamine D2 receptor [9] it was 53.1 µM. In addition, at dopamine D2 receptor [9] (arylpiperazine-arylurea compounds at 100 nM, [3H]-sulpiride, HEK-293 cells (Table 2)), the “D2 Receptor Displacement (%)” value was found to be 15.2 ± 1.6%.

The values above are taken from patent publication US12319659B2, “Selective ligand for dopamine D3 receptor, preparation method therefor, and pharmaceutical application thereof” (Shenzhen Linglan Bio-Pharmaceutical Technology Co., Ltd, priority 2017, dated 2025).
